These are literature values, as cited in article PMC6986806 (Nature chemical biology, 2020).

Molecules are shown by their SMILES.

This data set concerns GluN1/GluN2D.

`COc1ccc(OCC2c3cc(OC)c(OC)cc3CCN2C(=O)c2cccc(Cl)c2)cc1` (stereo not shown) [CIQ]: the “effect on GluN1/GluN2D unitary current” value is “no effect”.
